Measured values: ChEMBL document CHEMBL3596102, “Anti-bacterial glycosyl triazoles - Identification of an N-acetylglucosamine derivative with bacteriostatic activity against Bacillus” (2014)
Converted amounts (≈) assume the structure as drawn. The source made the active and inactive calls. No cut-off for these calls is given here.

Assays:
[1] = system: Bacillus cereus; assay: Antibacterial activity against Bacillus cereus assessed as inhibition of bacterial growth after 4 hrs by resazurin microtiter assay; format: functional
[2] = system: Bacillus cereus; assay: Bacteriostatic activity against Bacillus cereus assessed as colony count at MIC after 4 hrs by resazurin microtiter assay (reference value: 2.67 +/-1.53x10^8 CFU/ml); format: functional
[3] = system: Bacillus subtilis; assay: Antibacterial activity against Bacillus subtilis ATCC 11775 assessed as inhibition of bacterial growth after 4 hrs by resazurin microtiter assay; format: functional; details: ATCC 11775, 4 h
[4] = system: Bacillus subtilis; assay: Bacteriostatic activity against Bacillus subtilis ATCC 11775 assessed as colony count at MIC after 4 hrs by resazurin microtiter assay (reference value: 9.40 +/-2.88x10^7 CFU/ml); format: functional
[5] = system: Bacillus subtilis; assay: Inhibition of GlcNAcase in Bacillus subtilis ATCC 11775 assessed as inhibition of nitrophenol release using beta-p-nitrophenyl GlcNAc as substrate at 250 uM after 16 hrs by Spectromax 190 microtitre plate reader
[6] = system: Bacillus subtilis; assay: Induction of disrupted cell division in Bacillus subtilis ATCC 11775 assessed as phenotype with highly elongated cells and the appearance of chains of cells at 0.8xMIC after 2.5 hrs by phase contrast microscopy; format: functional, organism-based
[7] = system: Bacillus subtilis; assay: Inhibition of GlcNAcase in Bacillus subtilis ATCC 11775 assessed as inhibition of nitrophenol release using beta-p-nitrophenyl GlcNAc as substrate after 16 hrs by Spectromax 190 microtitre plate reader

MIC [1] [µM] | MIC [3] [µM] | inhibition [5] | inhibition [7] | SMILES | Activity [2] [×10⁸ CFU/ml] | Activity [4] [×10⁷ CFU/ml] | Activity [6]
60 (≈ 39.5 µg/mL) | – | – | – | COc1ccc(C(C(=O)NCc2ccccc2)N(Cc2ccccc2)C(=O)c2cn([C@@H]3O[C@H](CO)[C@@H](O)[C@H](O)[C@H]3NC(C)=O)nn2)cc1 (some centres not stated) | 7 | – | –
– | 63 (≈ 45.8 µg/mL) | Active | Dose-dependent effect | CCCCNC(=O)C(C1CCCCC1)N(Cc1cn([C@@H]2O[C@H](CO)[C@@H](O)[C@H](O)[C@H]2NC(C)=O)nn1)C(=O)c1ccccc1I (some centres not stated) | – | 8.5 | Active
